Laboratory results taken from paper PMC6214108, “Synthesis and In Vitro Antitumor Activity of Novel Bivalent β-Carboline-3-carboxylic Acid Derivatives with DNA as a Potential Target” (International Journal of Molecular Sciences, 2018).

Key:
[1] = tested on: SMMC-7721 (liver carcinoma) cell line; assay: MTT cytotoxicity assay, SMMC-7721; assay type: cell-based; conditions: Homo sapiens, 48 h, mean of three independent experiments, read-out: IC50 (μM) Mean ± SD, SMMC-7721
Experimental: (§1) All cell lines (A549, SGC-7901, Hela, SMMC-7721, and MCF-7) were purchased from the American Type Culture Collection (Manassas, VA, USA), and were cultured in Dulbecco’s modified Eagle’s medium (DMEM, HycloneLaboratories Inc., Logan, Utah, USA) supplemented with 10% fetal bovine serum (FBS, Gibco&Invitrogen, Carlsbad, CA, USA) at 37 °C and 5% CO2.
(§2) The cytotoxic activities of β-carboline-3-carboxylic acid derivatives were investigated by the MTT method, as previously described. Cells (1 × 10^4 cells per well) seeded into 96-well plates (JET, Guangzhou, China) were incubated with DMEM containing various concentrations (2.5, 5, 10, 20, 40, and 80 μM) of β-carbolines (4A, 4B, 4C, 4D, 6a-6f, 6g-6l, 6m-6r, and 6s-6x) for 48 h at 37 °C and 5% CO2. Then, 10 µL of 5 mg/mL MTT reagent dissolved in PBS (Phosphate buffered saline) was added per well, and plates were incubated at 37 °C for 4 h. The medium was carefully removed and 100 µL dimethyl sulfoxide (DMSO) was added to dissolve the formazan crystals. The absorbance was measured at 490 nm with a microplate reader (ThermoFisher Scientific Inc., Waltham, MA, USA). The β-carbolines were dissolved in DMSO as stock solutions (10 mM) at −20 °C, and diluted in the final experimental solution using DMEM before use. A549 (lung carcinoma), SGC-7901 (gastric carcinoma), Hela (cervical carcinoma), SMMC-7721 (liver carcinoma), and MCF-7 (breast carcinoma) cell lines were used for the antitumor activity screening. The IC50 values were the mean values of three independent experiments.

[2] = tested on: MCF-7 (breast carcinoma) cell line; assay: MTT cytotoxicity assay, MCF-7; assay type: cell-based; conditions: Homo sapiens, MCF7, 48 h, mean of three independent experiments, read-out: IC50 (μM) Mean ± SD, MCF-7
Experimental: as §1, §2

A549 cells = assay: Cell cycle assay, PI single staining, flow cytometry; assay type: cell-based; conditions: 48 h
Experimental: The cell cycle was determined by PI single staining. A549 cells (1 × 10^6 cells per well) seeded into 6-well plates (JET, Guangzhou, China) were incubated with DMEM containing various concentrations (2, 4, and 8 μM) of β-carbolines (4B, 6i, 4D, and 6u) for 48 h at 37 °C and 5% CO2. The cells were harvested, washed with pre-cooled PBS (4 °C), and fixed with pre-cooled 90% ethanol (4 °C). Then, the cells were incubated with 20 μL RNAse (30 μg/mL) and 20 μL PI (50 μg/mL) (Sigma Aldrich, Saint Louis, MO, USA) for 30 min at 37 °C. The samples were analyzed using flow cytometry (BD FACSCalibur, San Jose, CA, USA).
Figure 2 The cell cycle was detected by flow cytometry using PI single staining. A549 cells were treated with 4B, 6i, 4D, and 6u at 2, 4, and 8 μM for 48 h, and then stained with PI for 30 min at 37 °C. The proportions of cells containing different DNA content were analyzed by FCS Express 5.0 (De Novo Software, Thornhill, Canada).

[3] = tested on: A549 (lung carcinoma) cell line; assay: MTT cytotoxicity assay, A549; assay type: cell-based; conditions: Homo sapiens, 48 h, mean of three independent experiments, read-out: IC50 (μM) Mean ± SD, A549
Experimental: as §1, §2

[4] = tested on: MRC5 (normal lung cell) cell line; assay: MTT cytotoxicity assay, MRC5; assay type: cell-based; conditions: Homo sapiens, 48 h
Experimental: [The procedure below names another cell line; the source lists this cell line under the same test.] as §2

CT DNA = assay: Thermal denaturation study with CT DNA; assay type: binding, calf; conditions: β-carboline/DNA ratio of 0.5, pH 7.4
Experimental: The DNA-binding modes of the β-carboline derivatives (4B, 6i, 4D, and 6u) with CT DNA were examined by DNA thermal denaturation experiments, as previously described. The solutions containing complexes of CT DNA and 4B, 6i, 4D, or 6u were heated using a thermostatic water bath, and the absorbance was measured in 1 °C steps from 30 °C to 95 °C at 260 nm (At) by a UV-Vis spectrophotometer (A is the absorbance of the solution at 260 nm at different temperatures, t is the temperature). The experiments were performed in PE buffer (pH = 7.4) with a β-carboline/DNA ratio of 0.5. The ΔTm value of DNA alone is 56.8 °C. ΔTm = ΔTm^(DNA + 4B, 6i, 4D, or 6u) − ΔTm^(DNA alone).
Figure 6 Thermal denaturation study of the complexes of β-carbolines (4B, 6i, 4D, and 6u) and CT-DNA. Melting temperatures were measured in PBS-EDTA buffer (1 mM Na2HPO4, 0.1 mM EDTA, PH 7.4) with a β-carboline (4B, 6i, 4D, and 6u)/DNA ratio of 0.5. ΔTm = (ΔTm^4B,6i,4D, or 6u + DNA − ΔTm^DNA).

SMILES	IC50 [1]	IC50 [2]	Percentage of Cell Cycles (%) G1 (A549 cells; A549, 2 μM)	Percentage of Cell Cycles (%) G2/M (A549 cells; A549, 2 μM)	Percentage of Cell Cycles (%) S (A549 cells; A549, 2 μM)	Percentage of Cell Cycles (%) SubG1 (A549 cells; A549, 2 μM)	Percentage of Cell Cycles (%) G1 (A549 cells; A549, 4 μM)	Percentage of Cell Cycles (%) G2/M (A549 cells; A549, 4 μM)	Percentage of Cell Cycles (%) S (A549 cells; A549, 4 μM)	Percentage of Cell Cycles (%) SubG1 (A549 cells; A549, 4 μM)	Percentage of Cell Cycles (%) G1 (A549 cells; A549, 8 μM)	Percentage of Cell Cycles (%) G2/M (A549 cells; A549, 8 μM)	Percentage of Cell Cycles (%) S (A549 cells; A549, 8 μM)	Percentage of Cell Cycles (%) SubG1 (A549 cells; A549, 8 μM)	IC50 [3]	IC50 [4]	ΔTm (CT DNA)
COC(=O)c1cc2c3ccccc3n(Cc3ccccc3C)c2cn1 [Compound 4B]	> 80 µM	> 80 µM	59.38%	15.46%	25.16%	6.56%	43.06%	46.96%	9.98%	10.49%	52.09%	2.1%	45.81%	4.15%	39.2 ± 1.18 µM	51.78 ± 0.1 µM	7.5 °C
COC(=O)c1cc2c3ccccc3n(Cc3ccccc3F)c2cn1 [Compound 4D]	35.6 ± 1.33 µM	53.9 ± 2.02 µM	56.89%	18.94%	24.17%	6.41%	47.21%	35.46%	17.33%	39.03%	88.01%	0.3%	11.69%	46.29%	13.94 ± 0.07 µM	35.38 ± 0.01 µM	3.5 °C
Cc1ccccc1Cn1c2ccccc2c2cc(C(=O)OCCCCCOC(=O)c3cc4c5ccccc5n(Cc5ccccc5C)c4cn3)ncc21 [Compound 6i]	14.2 ± 0.28 µM	59.3 ± 5.86 µM	57.38%	10.54%	32.08%	6.86%	45.19%	42.40%	12.41%	26.33%	46.64%	0.06%	53.30%	21.32%	6.93 ± 0.33 µM	37.99 ± 0.1 µM	8.5 °C
O=C(OCCCCCOC(=O)c1cc2c3ccccc3n(Cc3ccccc3F)c2cn1)c1cc2c3ccccc3n(Cc3ccccc3F)c2cn1 [Compound 6u]	16.68 ± 0.11 µM	36 ± 2.99 µM	56.24%	19.97%	23.79%	6.84%	47.06%	40.34%	12.60%	46.25%	81.62%	18.30%	0.08%	44.92%	5.61 ± 0.04 µM	39.89 ± 0.05 µM	9.0 °C
